Experimental data as given in ChEMBL document CHEMBL2074483, “Multidrug-resistance protein 5 is a multispecific organic anion transporter able to transport nucleotide analogs” (Proc Natl Acad Sci U S A, 2000).

Experiments:
[1] = biological target: T1, ATP-binding cassette sub-family C member 5 (Homo sapiens, UniProt O15440); assay: TP_TRANSPORTER: efflux in MRP5-expressing MDCKII cells; type: functional, cell-based; details: dog, mdck-ii
[2] = biological target: T1, ATP-binding cassette sub-family C member 5; assay: TP_TRANSPORTER: inhibition of PMEA efflux (PMEA: 1 uM) in MRP5-expressing MDCKII cells; type: functional, cell-based, MDCK-II

T1 sequence (O15440 whole entry): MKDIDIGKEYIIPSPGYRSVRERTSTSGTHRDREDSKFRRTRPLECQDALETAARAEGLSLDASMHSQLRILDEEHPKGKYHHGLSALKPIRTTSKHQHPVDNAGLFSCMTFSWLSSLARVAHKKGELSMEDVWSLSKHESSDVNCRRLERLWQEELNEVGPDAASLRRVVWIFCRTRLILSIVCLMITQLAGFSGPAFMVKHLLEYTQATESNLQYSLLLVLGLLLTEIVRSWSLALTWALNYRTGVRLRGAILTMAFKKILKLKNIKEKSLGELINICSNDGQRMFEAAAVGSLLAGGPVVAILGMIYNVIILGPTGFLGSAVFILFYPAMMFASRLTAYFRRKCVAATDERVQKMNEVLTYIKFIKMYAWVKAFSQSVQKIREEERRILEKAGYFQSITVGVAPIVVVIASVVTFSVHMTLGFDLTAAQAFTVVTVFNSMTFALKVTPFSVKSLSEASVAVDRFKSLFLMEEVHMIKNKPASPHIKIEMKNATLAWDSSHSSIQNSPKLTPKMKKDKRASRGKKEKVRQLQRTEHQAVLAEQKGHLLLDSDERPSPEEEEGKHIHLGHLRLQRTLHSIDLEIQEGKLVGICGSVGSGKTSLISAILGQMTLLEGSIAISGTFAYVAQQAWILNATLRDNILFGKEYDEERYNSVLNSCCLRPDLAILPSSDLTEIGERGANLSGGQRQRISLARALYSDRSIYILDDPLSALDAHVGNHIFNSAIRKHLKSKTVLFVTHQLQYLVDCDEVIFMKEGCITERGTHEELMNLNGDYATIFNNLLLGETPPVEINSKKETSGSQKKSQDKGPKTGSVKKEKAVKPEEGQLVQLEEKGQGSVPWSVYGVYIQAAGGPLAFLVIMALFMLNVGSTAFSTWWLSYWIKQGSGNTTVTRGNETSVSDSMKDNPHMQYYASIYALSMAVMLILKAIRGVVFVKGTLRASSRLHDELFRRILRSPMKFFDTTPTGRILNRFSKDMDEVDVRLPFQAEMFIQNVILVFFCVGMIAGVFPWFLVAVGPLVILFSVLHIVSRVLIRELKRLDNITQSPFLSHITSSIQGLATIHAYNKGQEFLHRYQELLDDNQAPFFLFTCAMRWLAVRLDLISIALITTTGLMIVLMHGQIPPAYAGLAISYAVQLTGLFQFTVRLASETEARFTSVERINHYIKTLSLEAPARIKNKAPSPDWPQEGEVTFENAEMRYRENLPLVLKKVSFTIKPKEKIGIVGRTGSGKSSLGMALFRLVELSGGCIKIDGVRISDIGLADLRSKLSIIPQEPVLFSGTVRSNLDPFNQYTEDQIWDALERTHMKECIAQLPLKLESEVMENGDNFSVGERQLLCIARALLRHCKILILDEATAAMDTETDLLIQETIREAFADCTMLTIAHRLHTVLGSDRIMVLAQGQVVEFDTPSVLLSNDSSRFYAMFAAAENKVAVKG

Row | SMILES | Activity [1] | IC50 [2] [µM]
1 | Nc1ncnc2c1ncn2CCOCP(=O)(O)O [ADEFOVIR] | substrate [+] | 
2 | Sc1ncnc2nc[nH]c12 [MERCAPTOPURINE ANHYDROUS] | substrate [+] | 
3 | O=C1C(CC[S+]([O-])c2ccccc2)C(=O)N(c2ccccc2)N1c1ccccc1 (stereo not drawn) [SULFINPYRAZONE] |  | < 100
